Assays:
22rv1 = test: Effect on 22rv1 cell viability; details: for % Cell Viability of 22rv1 at 1 μM: at 1 μM (stated in cell)
Description: (§1) The initial interest was to see the importance of length of side chain on B-3. […] Relative cell growth can be assessed using the MTT (3-(4,5-dimethylthiazol-2-yl)-2,5-diphenyltetrazolium bromide) assay, a colorimetric assay for assessing cell metabolic activity. Cells (1000 to 2000 cells/well) in 150 μL culture medium were seeded in wells of a 96-well plate one day before various concentrations of drugs were added. After continuing culture in the presence of the drugs for the indicated time (3-4 days), 20 μL of 5 mg/mL MTT solution (Sigma-Aldrich) was added into each well. After incubation at 37° C. for 30 min, the culture medium was removed and 100 μL of DMSO was added to dissolve MTT crystals. Plates were shaken for 15 min at room temperature and absorbance at OD590 was read by plate reader.

[1] = system: LNCaP and 22rv1 cell lines; test: SAR statements on LNCaP and 22rv1 cell lines; format: cell-based; details: LNCaP 1 μM, 22rv1 0.5 μM
Description: All compounds were evaluated for their effects on LNCaP and 22rv1 cell lines at 1 and 0.5 μM concentrations, respectively. […] For this purpose different analogues of B-3 with chain length varying from 0 to 4 carbon were synthesized (Table 1). […] In view of the availability of a variety of commercially available benzyl amines over phenyl propyl amines and method to functionalize analogues with 1C chain compound 14c was selected for further modification.

LnCap cells = test: Effect on LnCap cell viability; details: 1 μM
Description: as §1

SMILES | % Cell Viability of 22rv1 at 0.5 μM (22rv1) | activity on cell lines, in words (SAR) [1] | % Cell Viability of LnCap cells at 1 μM (LnCap cells) | further results
CC(C)NC(=O)c1ccc(CNC(=O)c2cccc(-c3cc(O)c4ncccc4c3)c2)cc1 [Compound 17g] | 41.0% | proved useful | – | –
CN(C)c1ccc(CNC(=O)c2cccc(-c3cc(O)c4ncccc4c3)c2)cc1 [Compound 15t] | 19.6% | – | 66.3% | –
O=C(NCc1cccc(-c2ccccc2)c1)c1cccc(-c2cc(O)c3ncccc3c2)c1 [Compound 16h] | 26.9% | – | 21.8% | –
O=C(NCc1ccc(C(F)(F)F)cc1)c1cccc(-c2cc(O)c3ncccc3c2)c1 [Compound 15m] | – | – | 67.7% | –
O=C(NCc1ccc(C(=O)NC2CCCC2)cc1)c1cccc(-c2cc(O)c3ncccc3c2)c1 [Compound 17i] | 29.8% | loss of activity | – | –
O=C(NCc1ccc(F)cc1)c1cccc(-c2cc(O)c3ncccc3c2)c1 [Compound 15a] | – | – | 72.8% | –
O=C(NCc1ccc(Oc2ccccc2Cl)cc1)c1cccc(-c2cc(O)c3ncccc3c2)c1 [Compound 16c] | – | – | – | % Cell Viability of 22rv1 at 1 μM (22rv1): 38.1%
O=C(NCc1cccc(C(F)(F)F)c1)c1cccc(-c2cc(O)c3ncccc3c2)c1 [Compound 15n] | – | – | 75.4% | –
O=C(NCC1CC1)c1cccc(-c2cc(O)c3ncccc3c2)c1 [Compound 15w] | – | – | 60.7% | –
O=C(NCc1ccccc1-c1ccc(CN2CCCC2=O)cc1)c1cccc(-c2cc(O)c3ncccc3c2)c1 [Compound 16j] | 14.3% | – | 10.9% | inhibition of 22rv1 cells, in words (22rv1; compared with B-3): inhibited 22rv1 cells much better than B-3
O=C(NCc1ccc(C(=O)N[C@H]2CC[C@@H](C(F)(F)F)CC2)cc1)c1cccc(-c2cc(O)c3ncccc3c2)c1 [Compound 17n] | – | 17m (trans isomer) was much more active than compound 17n | – | –
CCOC(=O)c1ccc(CNC(=O)c2cccc(-c3cc(O)c4ncccc4c3)c2)cc1 [Compound 17d] | 22.7% | – | – | –
O=C(NCCCCc1ccccc1)c1cccc(-c2cc(O)c3ncccc3c2)c1 [Compound 14a] | – | deterioration of activity | – | –
O=C(NCc1ccc(C(=O)c2ccccc2)cc1)c1cccc(-c2cc(O)c3ncccc3c2)c1 [Compound 16k] | 6.4% | – | 26.7 (B-3, ND) % | –
O=C(NCc1ccc(Oc2ccccc2)cc1)c1cccc(-c2cc(O)c3ncccc3c2)c1 [Compound 16a] | – | significant improvement of activity over B-3 | – | % Cell Viability of 22rv1 at 1 μM (22rv1): 29.5%
O=C(NCc1ccc(Oc2ccc(Cl)cc2)cc1)c1cccc(-c2cc(O)c3ncccc3c2)c1 [Compound 16b] | – | – | – | % Cell Viability of 22rv1 at 1 μM (22rv1): 33.2%
O=C(NCc1ccc(C(=O)NC2CCCCC2)cc1)c1cccc(-c2cc(O)c3ncccc3c2)c1 [Compound 17j] | 5.0% | significant jump in activity compared to B-3 | – | –
N#Cc1ccc(CNC(=O)c2cccc(-c3cc(O)c4ncccc4c3)c2)cc1 [Compound 15s] | – | – | 52.8% (B-3, ND) | –
CC1Cc2ccc(-c3ccc(CNC(=O)c4cccc(-c5cc(O)c6ncccc6c5)c4)cc3)cc2O1 (stereo not drawn) [Compound 16g] | – | – | 30.0% | –
O=C(NCc1cccs1)c1cccc(-c2cc(O)c3ncccc3c2)c1 [Compound 15v] | – | – | 79.8% | –
O=C(NCc1cc(C(F)(F)F)cc(C(F)(F)F)c1)c1cccc(-c2cc(O)c3ncccc3c2)c1 [Compound 15p] | – | – | 62.5% | –
O=C(Nc1ccccc1)c1cccc(-c2cc(O)c3ncccc3c2)c1 [Compound 14d] | – | poor activity | – | –
O=C(NCc1ccccc1)c1cccc(-c2cc(O)c3ncccc3c2)c1 [Compound 14c] | 79.3% (B-3, | restoration of activity | – | –

Reference: patent US12378201B2, “Histone demethylase inhibitors for treating cancers” (The Board of Regents of the University of Texas System, priority 2019, dated 2025)
